Experimental data as given in patent publication US20250230172A1 (Vanqua Bio, Inc., priority 2021, published 2025).

These compounds were tested against T1, GCase (Homo sapiens, UniProt P04062) (assay: live cell PFB assay in HELA cells for activation of GCase).
T1 construct: endogenous in cells; host or cells: HeLa cells
T1 sequence (P04062 40-536): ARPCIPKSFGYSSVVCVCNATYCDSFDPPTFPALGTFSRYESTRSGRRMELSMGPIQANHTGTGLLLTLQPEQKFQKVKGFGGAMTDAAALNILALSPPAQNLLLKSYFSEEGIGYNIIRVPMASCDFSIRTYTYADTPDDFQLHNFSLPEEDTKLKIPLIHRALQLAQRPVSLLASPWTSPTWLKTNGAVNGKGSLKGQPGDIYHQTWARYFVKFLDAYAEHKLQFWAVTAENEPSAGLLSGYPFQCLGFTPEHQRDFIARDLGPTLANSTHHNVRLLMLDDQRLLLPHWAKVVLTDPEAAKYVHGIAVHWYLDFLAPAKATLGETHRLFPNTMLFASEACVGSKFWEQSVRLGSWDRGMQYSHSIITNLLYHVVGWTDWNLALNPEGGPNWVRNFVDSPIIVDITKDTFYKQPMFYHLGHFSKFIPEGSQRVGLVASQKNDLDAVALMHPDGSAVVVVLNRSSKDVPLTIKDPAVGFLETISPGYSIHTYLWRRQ
Assay type: cell-based
Procedure: Exemplary compounds were evaluated for activation of GCase in a live cell PFB assay in HELA cells (essentially as described in Ysselstein et al., “LRRK2 kinase activity regulates lysosomal glucocerebrosidase in neurons derived from Parkinson's disease patients” Nature Communications (2019) 10:5570). […] EC50 ranges: A: <10 μM; B: >10-50 μM; C: >50-100 μM; D: >100 μM.

Structure (SMILES)	EC50
FC(F)(F)c1ccnc(N2C[C@H]3CCN(c4cnc5cnn(C6COC6)c5n4)C[C@H]3C2)c1 (racemic) [Compound 1]	< 10 µM
FC(F)Cn1ncc2ncc(N3CC[C@@H]4CN(c5cccnc5C(F)(F)F)C[C@@H]4C3)nc21 (racemic) [Compound 2, rac-3-[(3aR,7aS)-5-[1-(2,2-difluoroethyl)-1H-pyrazolo[3,4-b]pyrazin-6-yl]-octahydro-1H-pyrrolo[3,4-c]pyridin-2-yl]-2-(trifluoromethyl)pyridine]	< 10 µM
FC(F)Cn1ncc2ncc(N3CC[C@@H]4CN(c5cc(C(F)(F)F)ccn5)C[C@@H]4C3)nc21 (racemic) [Compound 3]	< 10 µM
FC(F)Cn1ncc2ncc(N3C[C@H]4CCN(c5cccnc5C(F)(F)F)C[C@H]4C3)nc21 (racemic) [Compound 4, rac-3-[(3aR,7aR)-2-[1-(2,2-difluoroethyl)-1H-pyrazolo[3,4-b]pyrazin-6-yl]-octahydro-1H-pyrrolo[3,4-c]pyridin-5-yl]-2-(trifluoromethyl)pyridine]	< 10 µM
FC(F)Cn1ncc2ncc(N3CC[C@@H]4CN(c5ncccc5C(F)(F)F)C[C@@H]4C3)nc21 (racemic) [Compound 5]	< 10 µM
FC(F)Cn1ncc2ncc(N3C[C@H]4CCN(c5cccc(C(F)(F)F)n5)C[C@H]4C3)nc21 (racemic) [Compound 6]	< 10 µM
FC(F)Cn1ncc2ncc(N3CC[C@@H]4CN(c5cccc(C(F)(F)F)n5)C[C@@H]4C3)nc21 (racemic) [Compound 7]	< 10 µM
FC(F)Cn1ncc2ncc(N3CC[C@@H]4CN(c5ccc(C(F)(F)F)cn5)C[C@@H]4C3)nc21 (racemic) [Compound 8]	< 10 µM
O=C(c1ccc2ccn(CC3COC3)c2c1)N1CC[C@@H]2CN(c3cc(C(F)(F)F)ccn3)C[C@@H]2C1 (racemic) [Compound 9, rac-6-[(3aR,7aS)-2-[4-(trifluoromethyl)pyridin-2-yl]-octahydro-1H-pyrrolo[3,4-c]pyridine-5-carbonyl]-1-[(oxetan-3-yl)methyl]-1H-indole]	10 to 50 µM
FC(F)Cn1ncc2ncc(N3CC[C@@H]4CN(c5cncc(C(F)(F)F)c5)C[C@@H]4C3)nc21 (racemic) [Compound 10, rac-3-[(3aR,7aS)-5-[1-(2,2-difluoroethyl)-1H-pyrazolo[3,4-b]pyrazin-6-yl]-octahydro-1H-pyrrolo[3,4-c]pyridin-2-yl]-5-(trifluoromethyl)pyridine]	10 to 50 µM
FC(F)Cn1ncc2ncc(N3C[C@H]4CCN(c5cc(C(F)(F)F)ccn5)C[C@H]4C3)nc21 (racemic) [Compound 11]	10 to 50 µM
FC(F)Cn1ncc2ncc(N3CC[C@@H]4CN(c5ccc(C(F)(F)F)nc5)C[C@@H]4C3)nc21 (racemic) [Compound 12, rac-5-[(3aR,7aS)-5-[1-(2,2-difluoroethyl)-1H-pyrazolo[3,4-b]pyrazin-6-yl]-octahydro-1H-pyrrolo[3,4-c]pyridin-2-yl]-2-(trifluoromethyl)pyridine]	10 to 50 µM
FC(F)(F)Cn1ncc2ncc(N3CC[C@@H]4CN(c5cc(C(F)(F)F)ccn5)C[C@@H]4C3)nc21 (racemic) [Compound 13]	10 to 50 µM
FC(F)Cn1ncc2ncc(N3C[C@H]4CCN(c5cncc(C(F)(F)F)c5)C[C@H]4C3)nc21 (racemic) [Compound 14, rac-3-[(3aR,7aR)-2-[1-(2,2-difluoroethyl)-1H-pyrazolo[3,4-b]pyrazin-6-yl]-octahydro-1H-pyrrolo[3,4-c]pyridin-5-yl]-5-(trifluoromethyl)pyridine]	10 to 50 µM
FC(F)Cn1ncc2ncc(N3CC[C@@H]4CN(c5cnccc5C(F)(F)F)C[C@@H]4C3)nc21 (racemic) [Compound 15, rac-3-[(3aR,7aS)-5-[1-(2,2-difluoroethyl)-1H-pyrazolo[3,4-b]pyrazin-6-yl]-octahydro-1H-pyrrolo[3,4-c]pyridin-2-yl]-4-(trifluoromethyl)pyridine]	10 to 50 µM
O=C(c1ccc2ccn(C3COC3)c2c1)N1CC[C@@H]2CN(c3cc(C(F)(F)F)ccn3)C[C@@H]2C1 (racemic) [Compound 16, rac-6-[(3aR,7aS)-2-[4-(trifluoromethyl)pyridin-2-yl]-octahydro-1H-pyrrolo[3,4-c]pyridine-5-carbonyl]-1-(oxetan-3-yl)-1H-indole]	10 to 50 µM
FC(F)Cn1ncc2ncc(N3C[C@H]4CCN(c5ncccc5C(F)(F)F)C[C@H]4C3)nc21 (racemic) [Compound 17]	10 to 50 µM
FC(F)Cn1ncc2ncc(N3C[C@H]4CCN(c5ccc(C(F)(F)F)cn5)C[C@H]4C3)nc21 (racemic) [Compound 18]	10 to 50 µM
FC(F)(F)c1ccnc(N2C[C@H]3CCN(c4cncc(-c5nncs5)n4)C[C@H]3C2)c1 (racemic) [Compound 19, rac-2-[(3aR,7aS)-2-[4-(trifluoromethyl)pyridin-2-yl]-octahydro-1H-pyrrolo[3,4-c]pyridin-5-yl]-6-(1,3,4-thiadiazol-2-yl)pyrazine]	> 100 µM
FC(F)Cn1ncc2ncc(N3C[C@H]4CCN(c5ccc(C(F)(F)F)nc5)C[C@H]4C3)nc21 (racemic) [Compound 20, rac-5-[(3aR,7aR)-2-[1-(2,2-difluoroethyl)-1H-pyrazolo[3,4-b]pyrazin-6-yl]-octahydro-1H-pyrrolo[3,4-c]pyridin-5-yl]-2-(trifluoromethyl)pyridine]	10 to 50 µM
FC(F)Cn1ncc2ncc(N3CC[C@@H]4CN(c5ccnc(C(F)(F)F)c5)C[C@@H]4C3)nc21 (racemic) [Compound 21, rac-4-[(3aR,7aS)-5-[1-(2,2-difluoroethyl)-1H-pyrazolo[3,4-b]pyrazin-6-yl]-octahydro-1H-pyrrolo[3,4-c]pyridin-2-yl]-2-(trifluoromethyl)pyridine]	< 10 µM
FC(F)Cn1ncc2ncc(N3C[C@H]4CCN(c5ccncc5C(F)(F)F)C[C@H]4C3)nc21 (racemic) [Compound 22, rac-4-[(3aR,7aR)-2-[1-(2,2-difluoroethyl)-1H-pyrazolo[3,4-b]pyrazin-6-yl]-octahydro-1H-pyrrolo[3,4-c]pyridin-5-yl]-3-(trifluoromethyl)pyridine]	< 10 µM
FC(F)Cn1ncc2ncc(N3C[C@H]4CCN(c5ccnc(C(F)(F)F)c5)C[C@H]4C3)nc21 (racemic) [Compound 23, rac-4-[(3aR,7aR)-2-[1-(2,2-difluoroethyl)-1H-pyrazolo[3,4-b]pyrazin-6-yl]-octahydro-1H-pyrrolo[3,4-c]pyridin-5-yl]-2-(trifluoromethyl)pyridine]	10 to 50 µM
FC(F)Cn1ncc2ncc(N3C[C@H]4CCN(c5cnccc5C(F)(F)F)C[C@H]4C3)nc21 (racemic) [Compound 24, rac-3-[(3aR,7aR)-2-[1-(2,2-difluoroethyl)-1H-pyrazolo[3,4-b]pyrazin-6-yl]-octahydro-1H-pyrrolo[3,4-c]pyridin-5-yl]-4-(trifluoromethyl)pyridine]	10 to 50 µM
FC(F)Cn1ncc2ncc(N3CC[C@@H]4CN(c5ccncc5C(F)(F)F)C[C@@H]4C3)nc21 (racemic) [Compound 25]	> 100 µM
FC(F)Cn1ncc2ncc(N3C[C@@H]4CN(c5cc(C(F)(F)F)ccn5)C[C@H]4C3)nc21 (racemic) [Compound 44, rac-2-[(3aR,6aR)-5-[1-(2,2-difluoroethyl)-1H-pyrazolo[3,4-b]pyrazin-6-yl]-octahydropyrrolo[3,4-c]pyrrol-2-yl]-4-(trifluoromethyl)pyridine]	> 100 µM
FC(F)Cn1ncc2ncc(N3C[C@@H]4CN(c5cccc(C(F)(F)F)n5)C[C@H]4C3)nc21 (racemic) [Compound 46, rac-2-[(3aR,6aR)-5-[1-(2,2-difluoroethyl)-1H-pyrazolo[3,4-b]pyrazin-6-yl]-octahydropyrrolo[3,4-c]pyrrol-2-yl]-6-(trifluoromethyl)pyridine]	50 to 100 µM
FC(F)Cn1ncc2ncc(N3C[C@@H]4CN(c5ccc(C(F)(F)F)nc5)C[C@H]4C3)nc21 (racemic) [Compound 48, rac-5-[(3aR,6aR)-5-[1-(2,2-difluoroethyl)-1H-pyrazolo[3,4-b]pyrazin-6-yl]-octahydropyrrolo[3,4-c]pyrrol-2-yl]-2-(trifluoromethyl)pyridine]	10 to 50 µM
FC(F)Cn1ncc2ncc(N3C[C@@H]4CN(c5cccnc5C(F)(F)F)C[C@H]4C3)nc21 (racemic) [Compound 50, rac-3-[(3aR,6aR)-5-[1-(2,2-difluoroethyl)-1H-pyrazolo[3,4-b]pyrazin-6-yl]-octahydropyrrolo[3,4-c]pyrrol-2-yl]-2-(trifluoromethyl)pyridine]	< 10 µM
O=C1[C@@H]2CN(c3cc(C(F)(F)F)ccn3)C[C@@H]2CN1c1cnc2cnn(CC(F)F)c2n1 (racemic) [Compound 55, rac-(3aR,6aS)-2-[1-(2,2-difluoroethyl)-1H-pyrazolo[3,4-b]pyrazin-6-yl]-5-[4-(trifluoromethyl)pyridin-2-yl]-octahydropyrrolo[3,4-c]pyrrol-1-one]	10 to 50 µM
